Consider one molecule from US7049455B2, “Process for producing shogaols and intermediates for the synthesis thereof” (Toagosei Co., Ltd., priority 2002, dated 2006).

The test system of the test is mushroom-derived tyrosinase. The test is described as follows: inhibition of the activity of mushroom-derived tyrosinase, L-dopa as substrate. It is filed as biochemical. The note with it: L-dopa as a substrate, compared with arbutin (Tokyo Kasei Kogyo). From the text:
A test of [6]-shogaol obtained in Example 5 about the inhibition of the activity of mushroom-derived tyrosinase was done, using L-dopa as a substrate.

Entries after “also recorded” stand apart in the source; their conditions may differ.

For `CCCCC/C=C/C(=O)CCc1ccc(O)c(OC)c1` [[6]-shogaol], the “inhibition of tyrosinase activity” value is listed as “inhibited tyrosinase activity; also recorded: inhibitory activity at the same level as that of arbutin”.
